Measurements from PMC12858467, “In vitro toxicokinetics and metabolic profiling of methoxycathinones and methylthiocathinones using human liver systems and hyphenated mass spectrometry” (Archives of Toxicology, 2025).
Like-named read-outs stand apart in the source and are kept apart here.

Legend:
[1] = tested on: HepaRG cells; assay: Incubations using HepaRG cells; conditions: 25 µM parent, 24 h
Procedure: Cell incubations were performed in a monolayer assay (Kroesen et al. [2025]) and in accordance with the manufacturer’s instructions.
All incubations were performed in triplicate, with each well containing 0.5% (v/v) DMSO. Following incubation, 50 µL of the medium supernatant was transferred to a new reaction tube and precipitated with 30 µL of acetonitrile cooled to −20 °C, containing 2.5 µM trimipramine-d3 as an internal standard. […] The mixture was vortexed and centrifuged for 2 min at 18,407 × g. A volume of 70 µL of the supernatant was transferred into an autosampler vial and 5 µL was injected onto the LC–HRMS/MS system.
HepaRG cells were thawed and resuspended in 13.5 mL (~ 740,000 cells/mL) thaw
and seed medium at 37 °C. Thaw and seed medium consisted of Williams E medium,
100 U/mL penicillin, 100 µg/mL streptomycin, GlutaMAX, and HPRG670 supplement.
Cells were handled under sterile conditions using a laminar flow bench class II (Thermo
Scientific, TF, Schwerte, Germany). Aliquots of 100 µL cell suspension were seeded
on collagen-coated 96-well plates (~ 74,000 cells/well). Evaporation was minimized by
filling the outer wells with 100 µL thaw and seed medium. Cells were preincubated for
4 h in an incubator (Binder, Tuttlingen, Germany) at 37 °C, 95 % air humidity, and 5 %
CO2. After preincubation, 50 µL of the thaw and seed medium was replaced with 50 µL
solution of each cathinone (25 µM) in thaw and seed medium, followed by an
incubation for 24 h at 37 °C, 95 % air humidity, and 5 % CO2 atmosphere.
A Thermo Fisher ( TF, Dreieich, Germany) Dionex UltiMate 3000 RS pump consisting
of a degasser, a quaternary pump, and an autosampler, coupled to a TF Q Exactive
Plus system equipped with a heated electrospray ionization (HESI)-II source were
used. A mass calibration was done according to the manufacturer's recommendations
using external mass calibration prior to analysis. Gradient elution was performed on a
TF Accucore PhenylHexyl column (100 mm x 2.1 mm, 2.6 μm) with a 2 mM aqueous
ammonium formate solution containing 0.1 % (v/v) formic acid (pH 3, eluent A) and 2
mM ammonium formate solution in acetonitrile/methanol (50:50, v/v) containing 0.1 %
(v/v) formic acid, and 1 % (v/v) water (eluent B). The gradient was stepped as follows:
hold 99 % A. Initial flow rate from 0–9.5 min was 500 μL/min and final flow rate was
800 μL/min from 9.5–11.5 min. Mass spectrometry was performed using full scan data
and a subsequent data-dependent acquisition (DDA) with priority to mass-to-charge
ratios (m/z) of parent compounds and their expected metabolites. The inclusion list
contained m/z values of likely formed metabolites such as O- or S-desmethyl, hydroxy,
and oxo reduction metabolites (phase I) as well as sulfates, glucuronides (phase II),
and combinations thereof.
TF Xcalibur Qual Browser software […]

[2] = In vitro plasma protein binding (ultrafiltration, Centrifree); format: in vitro ADME; conditions: human, pooled human blood plasma, 30 min, 37 °C, ultrafiltration
Procedure: (§1) PPB was investigated according to a previous study with minor modifications (Kroesen et al. [2025]). Fresh and pooled human blood plasma (450 µL) was spiked with 50 µL of a 5 µM methanolic solution of 4MeO-NE-BP, 4MeO-αP-BP, 4MeO-αP-VP, 4MeS-NE-BP, 4MeS-αP-BP, or 4MeS-αMor-PrP. The mixture was incubated for 30 min at 37 °C and with gentle shaking at 200 rpm. […] The Centrifree devices were centrifuged for 35 min at 1600 × g to obtain 100 µL of the ultrafiltrate (UF). […] Experiments were performed in quadruplicate. Fraction unbound (fu) and PPB were determined by comparing the area ratios of the compound and trimipramine-d3 as an internal standard in the UF and GA using the following equations:1 fu=peak area ratiocompoundUF/ISUF/peak area ratiocompoundGA/ISGA 2 PPB[\%]=1-fu∗100.

[3] = tested on: plasma proteins (pooled human blood plasma); assay: as above; format: in vitro ADME; conditions: for PPB, %: 30 min, 37 °C, ultrafiltration
Procedure: as §1

[4] = tested on: pooled human liver S9 fraction (pHLS9) and HepaRG cells; assay: In vitro metabolism by pHLS9 and HepaRG cells (LC-HRMS/MS metabolite identification); format: in vitro ADME; conditions: 25 µM substrate
[5] = tested on: dopamine and serotonin transporters; set-up: method as in Wojcieszak et al. [2021]; conditions: ref Wojcieszak et al. [2021]; cited from earlier work
[6] = read-out: fu (unbound fraction)

| SMILES | metabolite detection in HepaRG incubations [1] | fraction unbound at 30 min, 0.5 µM [2, 6] | Plasma protein binding, class in words [3] | PPB, % [3] [%] | Phase II metabolism [4] | metabolic reactions (metabolite IDs) identified [4] | number of metabolites tentatively identified [4] | monoamine uptake inhibition, relative potency at transporters [5] | fraction unbound at 30 min, 0.5 µM ([2]; read-out: PPB, % (converted)) |
| --- | --- | --- | --- | --- | --- | --- | --- | --- | --- |
| CCCC(C(=O)c1ccc(OS(=O)(=O)O)cc1)N1CCCC1 (centres unmarked) [MO3.9] | observed in HepaRG incubations | – | – | – | – | – | – | – | – |
| CCCC(C(=O)c1ccc(OC)cc1)N1CCCC1 (stereo not drawn) [Compound 4MeO-αP-VP, 4’-methoxy-α-pyrrolidinovalerophenone] | – | 0.39 | moderate | 61 | O-sulfation (MO3.9) and O-glucuronidation (MO3.10) after O-demethylation | hydroxylation (MO3.1, MO3.3), O-demethylation (MO3.2), N-oxidation (MO3.4), lactam formation (MO3.5), O-demethylation + aromatic hydroxylation (MO3.6), hydroxylation + N-oxidation (MO3.7), and O-demethylation + dihydroxylation at the pyrrolidine ring (MO3.8) | 10 | greater potency in dopamine than serotonin transporters | – |
| CCC(C(=O)c1ccc(OC)cc1)N1CCCC1 (stereo not drawn) [Compound 4MeO-αP-BP, 4’-methoxy-α-pyrrolidinobutyrophenone] | – | 0.54 | low | 46 | – | hydroxylation (MO2.1), O-demethylation (MO2.2), N-oxidation (MO2.3), lactam formation (MO2.4), and hydroxylation + N-oxidation (MO2.5) | 5 | – | > 0.5 |
